Measured values taken from ChEMBL document CHEMBL1129981 (J Med Chem, 1997).

Columns and labels:
[1] = target: T1, Adrenergic receptor alpha-2 (Rattus norvegicus, UniProt P22086+P19328+P22909); experiment: Ability to displace [3H]rauwolscine from Alpha-2 adrenergic receptor in rat cortical membranes; assay type: cell membranes
T1 sequence (P22086 whole entry): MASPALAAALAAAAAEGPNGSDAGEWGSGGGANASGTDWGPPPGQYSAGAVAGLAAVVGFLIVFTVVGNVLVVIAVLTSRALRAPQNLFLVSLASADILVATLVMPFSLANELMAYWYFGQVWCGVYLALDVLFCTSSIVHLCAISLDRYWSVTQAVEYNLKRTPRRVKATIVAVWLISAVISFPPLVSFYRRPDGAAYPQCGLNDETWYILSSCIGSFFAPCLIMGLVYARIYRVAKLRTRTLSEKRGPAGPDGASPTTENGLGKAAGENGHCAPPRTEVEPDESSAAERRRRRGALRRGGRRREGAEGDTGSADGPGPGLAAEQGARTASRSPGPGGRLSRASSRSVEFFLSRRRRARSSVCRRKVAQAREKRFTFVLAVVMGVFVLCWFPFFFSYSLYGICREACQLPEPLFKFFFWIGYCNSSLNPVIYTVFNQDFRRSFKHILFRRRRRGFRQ
T1 sequence (P19328 whole entry): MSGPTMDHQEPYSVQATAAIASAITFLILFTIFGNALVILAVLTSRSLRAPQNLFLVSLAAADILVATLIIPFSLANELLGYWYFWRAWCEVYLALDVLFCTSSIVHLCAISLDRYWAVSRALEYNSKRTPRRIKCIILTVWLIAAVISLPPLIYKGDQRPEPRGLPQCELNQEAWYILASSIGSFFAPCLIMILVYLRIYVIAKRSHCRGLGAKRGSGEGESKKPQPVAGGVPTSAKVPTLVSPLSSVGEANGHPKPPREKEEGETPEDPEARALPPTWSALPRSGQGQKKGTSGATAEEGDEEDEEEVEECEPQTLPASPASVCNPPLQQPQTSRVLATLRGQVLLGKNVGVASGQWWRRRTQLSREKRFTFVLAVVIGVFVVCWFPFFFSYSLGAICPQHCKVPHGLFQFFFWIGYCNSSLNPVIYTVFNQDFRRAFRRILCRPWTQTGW
T1 sequence (P22909 whole entry): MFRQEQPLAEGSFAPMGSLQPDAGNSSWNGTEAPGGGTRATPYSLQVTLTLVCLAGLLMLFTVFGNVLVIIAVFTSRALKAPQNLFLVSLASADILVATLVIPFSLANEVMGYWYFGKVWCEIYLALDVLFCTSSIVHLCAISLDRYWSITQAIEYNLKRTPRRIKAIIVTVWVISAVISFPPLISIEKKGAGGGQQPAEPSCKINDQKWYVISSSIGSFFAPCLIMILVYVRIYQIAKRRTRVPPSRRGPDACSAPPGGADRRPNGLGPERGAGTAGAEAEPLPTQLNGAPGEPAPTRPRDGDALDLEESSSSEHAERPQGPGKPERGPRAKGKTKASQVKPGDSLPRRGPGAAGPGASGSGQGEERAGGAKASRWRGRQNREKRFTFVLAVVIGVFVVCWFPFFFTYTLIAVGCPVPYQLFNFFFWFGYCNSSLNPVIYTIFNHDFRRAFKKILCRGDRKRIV

[2] = target: Sodium-dependent serotonin transporter (Rattus norvegicus, UniProt P31652); experiment: Inhibition of uptake of [3H]5-HT in synaptosomes from rat cortex; assay type: functional, subcellular, Brain
Sequence of Sodium-dependent serotonin transporter (P31652 whole entry): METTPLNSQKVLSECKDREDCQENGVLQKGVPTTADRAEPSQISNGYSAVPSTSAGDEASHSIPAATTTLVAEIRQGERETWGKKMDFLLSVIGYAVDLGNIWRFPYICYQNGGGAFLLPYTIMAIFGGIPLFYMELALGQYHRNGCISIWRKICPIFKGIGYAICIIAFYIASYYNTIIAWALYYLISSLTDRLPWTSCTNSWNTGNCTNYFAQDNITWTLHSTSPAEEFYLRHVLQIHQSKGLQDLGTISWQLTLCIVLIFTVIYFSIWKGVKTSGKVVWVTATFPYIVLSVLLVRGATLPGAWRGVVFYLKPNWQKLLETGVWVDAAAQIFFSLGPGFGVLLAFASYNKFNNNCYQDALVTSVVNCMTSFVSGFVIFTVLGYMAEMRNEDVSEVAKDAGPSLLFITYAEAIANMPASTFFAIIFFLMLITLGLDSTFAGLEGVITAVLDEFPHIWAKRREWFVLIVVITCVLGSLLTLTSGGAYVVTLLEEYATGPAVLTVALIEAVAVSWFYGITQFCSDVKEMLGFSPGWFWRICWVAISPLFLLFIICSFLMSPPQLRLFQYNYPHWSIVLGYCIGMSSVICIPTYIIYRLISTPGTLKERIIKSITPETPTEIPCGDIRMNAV

SMILES	Ki [1]	IC50 [2]
COc1cccc2c1CCC[C@H]2CN(C)CCc1ccc2c(c1)CN(S(=O)(=O)C(F)(F)F)C2	142 nM	59.8 nM
COc1cccc2c1CCC[C@H]2CN(CCc1ccc2c(c1)OCO2)C1CC1	266 nM	–
C1=C(CC2=NCCN2)CCc2ccccc21 [NAPAMEZOLE]	4.17 nM	887 nM
CN(CCc1ccc2c(c1)OCO2)CC1CCCc2c(NS(C)(=O)=O)cccc21 (stereo not drawn)	19 nM	658 nM
CN(CCc1ccc2c(c1)OCO2)C[C@@H]1CCCc2c1ccc1c2OCC1	5.57 nM	26.7 nM
CN(CCc1ccc2c(c1)OCO2)C[C@@H]1CCCc2c1ccc1ccoc21	4.88 nM	101 nM
CCOc1cccc2c1CCC[C@H]2CN(C)CCc1ccc2c(c1)OCO2	1.86 nM	198 nM
CN(CCc1ccc2c(c1)OCO2)CC1CCCc2c(O)cccc21 (stereo not drawn)	7.54 nM	1240 nM
COc1cccc2c1CCC[C@H]2CN(C)CCc1ccc2c(c1)N(S(=O)(=O)C(F)(F)F)CC2	125 nM	183 nM
COc1cccc2c1CCC[C@H]2CN(C)CCc1ccc2c(c1)NCC2	11.7 nM	79.1 nM
CN(CCc1ccc2c(c1)OCO2)C[C@@H]1CC[C@H]2CCOc3cccc1c32	94.1 nM	436 nM
COc1ccc2c(c1OC)CCC[C@H]2CN(C)CCc1ccc2c(c1)OCO2	15.5 nM	757 nM
COc1cccc2c1CCC[C@H]2CN(C)CCc1ccc2c(c1)C=CS2(=O)=O	4.82 nM	51 nM
COc1ccc2c(c1)CCCC2CN(C)CCc1ccc2c(c1)OCO2 (stereo not drawn)	23.5 nM	469 nM
COc1cccc2c1CCC[C@H]2CN(C)CCc1ccc2nccnc2c1	1.81 nM	44.4 nM
COc1cccc2c1CCC[C@H]2CN(C)CCc1ccc2c(c1)CN(S(C)(=O)=O)C2	5.33 nM	5.81 nM
COc1cccc2c1CCC[C@H]2CN(C)CCc1ccc2c(c1)CCN2S(=O)(=O)C(F)(F)F	158 nM	132 nM
COc1cccc2c1CCC[C@H]2CN(C)CCc1ccc2c(c1)CC(=O)N2	4.91 nM	22.2 nM
COc1cccc2c1C(CN(C)CCc1ccc3c(c1)OCO3)CCC2 (stereo not drawn)	2.88 nM	1430 nM
COc1cccc2c1CCC[C@H]2CN(C)CCc1ccc2c(c1)OCO2	1.7 nM	12.7 nM

SMILES	Ki [1]	IC50 [2]
COc1cccc2c1CCC[C@H]2CN(C)CCc1ccc2ncccc2c1	3.91 nM	46.7 nM
CN(CCc1ccc2c(c1)OCO2)CC1CCCc2ccccc21 (stereo not drawn)	8.19 nM	1090 nM
COc1cccc2c1CCCC2CN(C)CCc1ccc2c(c1)OCO2 (stereo not drawn)	6.71 nM	20.6 nM
COc1cccc2c1CCC[C@H]2CN(C)CCc1ccc2nc(C)oc2c1	9.27 nM	42.8 nM
COc1cccc2c1CCC[C@H]2CN(C)CCc1ccc2c(c1)CCO2	1.76 nM	14.6 nM
COc1ccc2c(c1)C(CN(C)CCc1ccc3c(c1)OCO3)CCC2 (stereo not drawn)	57.5 nM	1420 nM
C#CCN(CCc1ccc2c(c1)OCO2)C[C@@H]1CCCc2c(OC)cccc21	184 nM	–
COc1cccc2c1CCC[C@H]2CN(C)CCc1ccc2nc(O)oc2c1	4.51 nM	19.4 nM
COc1cccc2c1CCC[C@H]2CN(C)CCc1ccc2nc(N)sc2c1	5.67 nM	9.47 nM
COc1cccc2c1CCC[C@H]2CN(C)CCc1ccc2c(c1)COC2	2.64 nM	229 nM
COc1cccc2c1CCC[C@H]2CN(C)CCc1ccc2sccc2c1	17.9 nM	52.8 nM
COc1cccc2c1CCC[C@H]2CN(CCc1ccc2c(c1)OCO2)CC1CC1	54.3 nM	–
COc1cccc2c1CCC[C@H]2CN(C)CCc1ccc2c(c1)CNC2	5.99 nM	11.6 nM
COc1cccc2c1CCC[C@H]2CN(C)CCc1ccc2[nH]c(O)nc2c1	10.8 nM	16.3 nM
COc1cccc2c1CCC[C@H]2CN(C)CCc1ccc2c(c1)CCS2	2.65 nM	24.3 nM
COc1cccc2c1CCC[C@H]2CN(C)CCc1ccc2c(c1)CS(=O)(=O)C2	1.78 nM	6.67 nM
COc1cccc2c1CCC[C@H]2CN(C)CCc1ccc2[nH]cnc2c1	5.21 nM	11.3 nM
COc1cccc2c1CCC[C@H]2CN(C)CCc1ccc2c(c1)CCN2	3.42 nM	31.8 nM
COc1cccc2c1CCC[C@H]2CN(C)CCc1ccc2oc(O)nc2c1	7.5 nM	68.3 nM
COc1cccc2c1CCC[C@H]2CN(C)CCc1ccc2c(c1)N(S(C)(=O)=O)CC2	5.35 nM	38.9 nM

SMILES	Ki [1]	IC50 [2]
COc1cccc2c1CCC[C@H]2CN(C)CCc1ccc2ccncc2c1	6.07 nM	53.9 nM
COc1cccc2c1CCC[C@H]2CN(C)CCc1ccc2cccnc2c1	6.79 nM	18.1 nM
CCN(CCc1ccc2c(c1)OCO2)C[C@@H]1CCCc2c(OC)cccc21	5.73 nM	158 nM
COc1cccc2c1CCC[C@H]2CN(C)CCc1ccc2nc(Cl)sc2c1	5.45 nM	38.2 nM
COc1cccc2c1CCC[C@H]2CN(C)CCc1ccc2nc(C)sc2c1	2.12 nM	86.7 nM
COc1cccc2c1CCC[C@H]2CN(C)CCc1ccc2ncoc2c1	1.22 nM	5.25 nM
COc1cccc2c1CCC[C@H]2CN(C)CCc1ccc2c(c1)OCC2	1.88 nM	18.1 nM
COc1cccc2c1CCC[C@H]2CNCCc1ccc2c(c1)OCO2	88.2 nM	414 nM
COc1cccc2c1CCC[C@H]2CN(C)CCc1ccc2occc2c1	2.78 nM	17.6 nM
CN(CCc1ccc2c(c1)OCO2)CC1CCCc2c1ccc1c2OCO1 (stereo not drawn)	11 nM	60.3 nM
CSc1cccc2c1CCCC2CN(C)CCc1ccc2c(c1)OCO2 (stereo not drawn)	21 nM	117 nM
COc1cccc2c1CCC[C@H]2CN(C)CCc1ccc2ncsc2c1	2.73 nM	8.94 nM
COc1cccc2c1CCC[C@H]2CN(C)CCc1ccc2ocnc2c1	1.77 nM	16.7 nM
COc1cccc2c1CCC[C@H]2CN(C)CCc1ccc2c(c1)CCS2(=O)=O	4.67 nM	33.7 nM
COc1cccc2c1CCC[C@H]2CN(C)CCc1ccc2c(c1)CCC2	8.99 nM	20.5 nM
COc1cccc2c1CCC[C@H]2CN(C)CCc1ccc2c(c1)CCN2S(C)(=O)=O	4.62 nM	35 nM
CN(CCc1ccc2c(c1)OCO2)C[C@@H]1CC[C@@H]2CCOc3cccc1c32	113 nM	862 nM
COc1cccc2c1CCC[C@@H]2CN(C)CCc1ccc2c(c1)OCO2	88.6 nM	1310 nM
